Several values for one entry are separate records, joined by “and”; a condition that tells them apart may be missing. Equal values may be shown once.
Columns and labels:
[1] = system: Blood derived macrophages from ALS patients; settings: 300uM overnight, two ALS patients, FIG. 3
Source text: The maj or focus was on regulation of inflammation as compared to normal macrophage functional genes. […] Note that by “housekeeping genes” is meant B2M, HPRT1, RPL13A, GAPDH, and ACTB.

ALS blood monocytes [2] = settings: 3 days
Method: Culture supernatants are harvested and osteopontin levels (OPN) are determined by ELISA.
Repeated with 3 normal and 5 ALS donors.

Normal blood macrophages = settings: 150uM, three days, three donors
[3] = system: blood derived macrophages (CD16 on CD14 cells); settings: +30 µM, +100 µM, +300 µM, three days, 5 donors, FIG. 2
Method: Cells were then processed for flow cytometry (5 separate donors) and CD14 cell co-expression of CD16 (macrophage activation marker) was scored.
Percentage of control median CD16 was calculated for all 5 donors +/- SD.

ALS blood monocytes [4] = settings: 300uM, 3 days, FIG. 4
Method: Culture supernatants were harvested and cytokine levels were determined by ELISA. […] Referring to the Y-axis, percentage of reduction is the level of factor in treated as compared to untreated macrophages. N is 8-18 in several experiments.

For “sodium chlorite [sodium chlorite formulation]”, the CCL16 gene expression [1] was “clear down regulation”, the CCR2 gene expression [1] was “clear down regulation” and the CXCL9 gene expression [1] was “clear down regulation”. For the same substance, the CXCL10 gene expression [1] was “clear down regulation”, the “IL-18 gene expression (inflammasome activation)” value [1] was “clear down regulation” and the TLR4 gene expression [1] was “clear down regulation”. The “production of OPN from ALS patient macrophages (ELISA)” value (ALS blood monocytes [2]; 150uM, FIG. 6 panel A) was “inhibit production of OPN”, the “SPP1 (osteopontin) gene expression” value (ALS blood monocytes [2]; dose response, FIG. 6 panel B) was “inhibits SPP1 (osteopontin) gene expression in a dose-dependent manner” and the “CCR3 gene down regulated” value (Normal blood macrophages) was 3 X. The “CXCL9 gene down regulated” value (Normal blood macrophages) was 14 X, the SERPINB2 gene upregulated (Normal blood macrophages) was 4 X and the “Chlorite % Reduction of factor in vitro, MIG” value (COVID19 blood monocytes) was 88% and 70%. For the same substance, the “Chlorite % reduction of factor in vitro, IP10” value (COVID19 blood monocytes) was 95% and 80%, the “down regulation of HGF” value (COVID19 blood monocytes) was “greater than 50%” and the “down regulation of IL1Ra” value (COVID19 blood monocytes) was “greater than 50%”. For the same substance, the “down regulation of IP10 (CXCL10)” value (COVID19 blood monocytes) was “greater than 50%”, the “down regulation of MIG (CXCL9)” value (COVID19 blood monocytes) was “greater than 50%” and the “down regulation of OPN” value (COVID19 blood monocytes) was “greater than 50%”. For the same substance, the “down regulation of sCD163 (CD163)” value (COVID19 blood monocytes) was “greater than 50%”, the “production of COVID-19 patient macrophage produced disease factors (IL-1Ra, IP-10, HGF, MIG, sCD163, OPN) as compared to controls” value (COVID19 blood monocytes) was “downregulated production” and the “CD16 expression on CD14+ (monocyte lineage) cells” value [3] was “dose dependent down regulation of CD16”. The “production of secreted inflammatory factors (IL-1Ra, CD163, CD14, OPN)” value (ALS blood monocytes [4]) was “inhibits production”.
